Several values for one entry are separate records, joined by “and”; a condition that tells them apart may be missing. Equal entries are not always repeated. Toxic doses and inconclusive results are not listed.

The results in this text go back to PubChem BioAssay AID256 (DTP/NCI, 2004).

This assay relates to CD2F1 mice, L1210 leukemia ip, survival T/C. Kind of assay: NCI In Vivo Anticancer Drug Screen. Data for tumor model L1210 Leukemia (intraperitoneal) in CD2F1 (CDF1) mice. Particulars: higher = longer survival. The procedure, abridged:
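Ratio T/C, where T is the treated-group value and C the vehicle-dosed control value, from mice implanted with a transplantable tumor.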

Setting [1] is: endpoint: mean survival time, dose: 100.0 mg/kg/injection, schedule: Q04DX003 (ip), vehicle: saline with Tween-80.
Setting [2] is: endpoint: mean survival time, dose: 200.0 mg/kg/injection, schedule: Q04DX003 (ip), vehicle: saline with Tween-80.
[3] abbreviates: endpoint: mean survival time, dose: 400.0 mg/kg/injection, schedule: Q04DX003 (ip), vehicle: saline with Tween-80.
Where [4] appears, read: endpoint: mean survival time, dose: 75.0 mg/kg/injection, schedule: Q01DX001 (ip), vehicle: saline.
Setting [5] is: endpoint: mean survival time, dose: 150.0 mg/kg/injection, schedule: Q01DX001 (ip), vehicle: saline.
Setting [6] is: endpoint: mean survival time, dose: 300.0 mg/kg/injection, schedule: Q01DX001 (ip), vehicle: saline.
The mark [7] stands for this setting: endpoint: mean survival time, dose: 25.0 mg/kg/injection, schedule: Q04DX003 (ip), vehicle: saline with Tween-80.
The mark [8] stands for this setting: endpoint: mean survival time, dose: 50.0 mg/kg/injection, schedule: Q04DX003 (ip), vehicle: saline with Tween-80.
Where [9] appears, read: endpoint: mean survival time, dose: 100.0 mg/kg/injection, schedule: Q01DX001 (ip), vehicle: saline.
Where [10] appears, read: endpoint: mean survival time, dose: 200.0 mg/kg/injection, schedule: Q01DX001 (ip), vehicle: saline.
Where [11] appears, read: endpoint: mean survival time, dose: 100.0 mg/kg/injection, schedule: Q04DX002 (ip), vehicle: saline with Tween-80.
Setting [12] is: endpoint: mean survival time, dose: 400.0 mg/kg/injection, schedule: Q04DX002 (ip), vehicle: saline with Tween-80.

On to `N#CSCc1ccccc1Cl`, for which the T/C runs as follows: (endpoint: mean survival time, dose: 2.5 mg/kg/injection, schedule: Q01DX009 (ip), vehicle: saline sonified) 91 % of control; (endpoint: mean survival time, dose: 5.0 mg/kg/injection, schedule: Q01DX009 (ip), vehicle: saline sonified) 96 % of control; (endpoint: mean survival time, dose: 5.0 mg/kg/injection, schedule: Q04DX003 (ip), vehicle: saline with Tween-80) 95 % of control; (endpoint: mean survival time, dose: 10.0 mg/kg/injection, schedule: Q01DX009 (ip), vehicle: saline sonified) 96 % of control; (endpoint: mean survival time, dose: 10.0 mg/kg/injection, schedule: Q04DX003 (ip), vehicle: saline with Tween-80) 86 % of control.

With `CC(=O)Nc1c(N)ncnc1N`, the T/C by setting is: under setting [1], 90 % of control; under setting [2], 93 % of control; under setting [3], 98 % of control.

For `COc1ccc(/C=C(/C#N)c2ccccc2)cc1`, the T/C under setting [1] is 95 % of control, the T/C under setting [2] was 93 % of control and the T/C under setting [3] was 90 % of control.

With `N=C(OC1CCCCC1)C(Cl)(Cl)Cl`, the T/C runs as follows: (endpoint: mean survival time, dose: 50.0 mg/kg/injection, schedule: Q01DX009 (ip), vehicle: saline with Tween-80) 92 % of control; (endpoint: mean survival time, dose: 100.0 mg/kg/injection, schedule: Q01DX009 (ip), vehicle: saline with Tween-80) 88 % of control.

On to `Nc1ncnc2c1nc(N1CCCCC1)n2C1OC(CO)C(O)C1O` (stereo unspecified), for which the T/C was 92 % of control and 98 % of control (endpoint: mean survival time, dose: 12.5 mg/kg/injection, schedule: Q01DX005 (ip), vehicle: distilled water + Tween-80); 103 % of control and 97 % of control (endpoint: mean survival time, dose: 25.0 mg/kg/injection, schedule: Q01DX005 (ip), vehicle: distilled water + Tween-80); 99 % of control and 98 % of control (endpoint: mean survival time, dose: 50.0 mg/kg/injection, schedule: Q01DX005 (ip), vehicle: distilled water + Tween-80); 101 % of control and 100 % of control (endpoint: mean survival time, dose: 100.0 mg/kg/injection, schedule: Q01DX005 (ip), vehicle: distilled water + Tween-80); 97 % of control and 100 % of control (endpoint: mean survival time, dose: 200.0 mg/kg/injection, schedule: Q01DX005 (ip), vehicle: distilled water + Tween-80).

Regarding `COc1cc(C)cc(O)c1C=O`, the T/C under setting [1] was 100 % of control, the T/C under setting [2] was 100 % of control and the T/C under setting [3] was 100 % of control.

For `Cn1cnc(=S)c2ccccc21`, the T/C is 104 % of control (endpoint: mean survival time, dose: 25.0 mg/kg/injection, schedule: Q04DX003 (ip), vehicle: Klucel (hydroxypropylcellulose) (HPC)) and 93 % of control (endpoint: mean survival time, dose: 50.0 mg/kg/injection, schedule: Q04DX003 (ip), vehicle: Klucel (hydroxypropylcellulose) (HPC)).

On to `CC(O)C1NC(=S)N(c2ccccc2)C1=O` (stereo unspecified), for which the T/C reads like this: under setting [4], 100 % of control; under setting [5], 103 % of control; under setting [6], 103 % of control.

As to `NC(COC(c1ccccc1)(c1ccccc1)c1ccccc1)C(=O)O` (stereo unspecified), the T/C by setting is: (endpoint: mean survival time, dose: 25.0 mg/kg/injection, schedule: Q01DX009 (ip), vehicle: saline) 103 % of control; (endpoint: mean survival time, dose: 50.0 mg/kg/injection, schedule: Q01DX009 (ip), vehicle: saline) 113 % of control; (endpoint: mean survival time, dose: 200.0 mg/kg/injection, schedule: Q01DX009 (ip), vehicle: saline) 150 % of control; (endpoint: mean survival time, dose: 300.0 mg/kg/injection, schedule: Q01DX009 (ip), vehicle: saline) 122 % of control; (endpoint: mean survival time, dose: 400.0 mg/kg/injection, schedule: Q01DX009 (ip), vehicle: saline) 111 % of control.

Take `Nc1nc(N)n(-c2ccccn2)n1`: the T/C runs as follows: (endpoint: mean survival time, dose: 75.0 mg/kg/injection, schedule: Q01DX001 (ip), vehicle: other) 101 % of control; (endpoint: mean survival time, dose: 150.0 mg/kg/injection, schedule: Q01DX001 (ip), vehicle: other) 97 % of control.

With `C[N+](C)(CC(=O)Nc1cccc(C(F)(F)F)c1)CC(=O)Nc1cccc(C(F)(F)F)c1`, the T/C was 100 % of control under setting [7] and 88 % of control under setting [8].

Regarding `CN(C)N=Nc1c(Cl)cccc1Cl`, the T/C is, setting by setting: (endpoint: mean survival time, dose: 9.38 mg/kg/injection, schedule: Q01DX009 (ip), vehicle: Klucel (hydroxypropylcellulose) (HPC)) 101 % of control; (endpoint: mean survival time, dose: 18.75 mg/kg/injection, schedule: Q01DX009 (ip), vehicle: Klucel (hydroxypropylcellulose) (HPC)) 95 % of control and 103 % of control; (endpoint: mean survival time, dose: 37.5 mg/kg/injection, schedule: Q01DX009 (ip), vehicle: Klucel (hydroxypropylcellulose) (HPC)) 97 % of control and 110 % of control; (endpoint: mean survival time, dose: 300.0 mg/kg/injection, schedule: Q01DX009 (ip), vehicle: Klucel (hydroxypropylcellulose) (HPC)) 89 % of control.

As to `N#CC(O)c1ccc([N+](=O)[O-])cc1` (stereo unspecified), the T/C is 101 % of control (endpoint: mean survival time, dose: 1.25 mg/kg/injection, schedule: Q04DX002 (ip), vehicle: saline with Tween-80); 101 % of control (endpoint: mean survival time, dose: 2.5 mg/kg/injection, schedule: Q04DX002 (ip), vehicle: saline with Tween-80); 101 % of control (endpoint: mean survival time, dose: 5.0 mg/kg/injection, schedule: Q04DX002 (ip), vehicle: saline with Tween-80); 97 % of control (endpoint: mean survival time, dose: 10.0 mg/kg/injection, schedule: Q04DX002 (ip), vehicle: saline with Tween-80).

`ClCc1cnc[nH]1`: the T/C is 103 % of control (endpoint: mean survival time, dose: 100.0 mg/kg/injection, schedule: Q04DX002 (ip), vehicle: saline) and 96 % of control (endpoint: mean survival time, dose: 200.0 mg/kg/injection, schedule: Q04DX002 (ip), vehicle: saline).

In the case of `CC(=O)Nc1ccccc1C`, the T/C under setting [1] was 97 % of control, the T/C under setting [2] was 97 % of control and the T/C under setting [3] was 99 % of control.

Regarding `c1ccc(C(c2ccccc2)[n+]2ccccc2)cc1`, the T/C was 98 % of control (endpoint: mean survival time, dose: 5.0 mg/kg/injection, schedule: Q01DX009 (ip), vehicle: saline); 104 % of control (endpoint: mean survival time, dose: 5.0 mg/kg/injection, schedule: Q04DX003 (ip), vehicle: saline); 102 % of control (endpoint: mean survival time, dose: 10.0 mg/kg/injection, schedule: Q01DX009 (ip), vehicle: saline); 103 % of control (endpoint: mean survival time, dose: 10.0 mg/kg/injection, schedule: Q04DX003 (ip), vehicle: saline); 109 % of control (endpoint: mean survival time, dose: 20.0 mg/kg/injection, schedule: Q04DX003 (ip), vehicle: saline).

On to `CCN(CC)CCNc1ccc(C)c2sc3ccc(O)cc3c(=O)c12`, for which the T/C reads like this: (endpoint: median survival time, dose: 12.0 mg/kg/injection, schedule: Q01DX009 (ip), vehicle: saline with Tween-80) 106 % of control; (endpoint: median survival time, dose: 12.5 mg/kg/injection, schedule: Q01DX009 (ip), vehicle: saline with Tween-80) 110 % of control; (endpoint: median survival time, dose: 25.0 mg/kg/injection, schedule: Q01DX009 (ip), vehicle: saline with Tween-80) 121 % of control; (endpoint: median survival time, dose: 50.0 mg/kg/injection, schedule: Q01DX009 (ip), vehicle: saline with Tween-80) 159 % of control; (endpoint: median survival time, dose: 200.0 mg/kg/injection, schedule: Q01DX009 (ip), vehicle: saline with Tween-80) 103 % of control.

On to `CCCCOC(=O)C1(N)CCCC1`, for which the T/C is 110 % of control (endpoint: mean survival time, dose: 100.0 mg/kg/injection, schedule: Q04DX003 (ip), vehicle: saline) and 102 % of control (endpoint: mean survival time, dose: 400.0 mg/kg/injection, schedule: Q04DX003 (ip), vehicle: saline).

For `CC(C)(C)C(NO)C(O)N1CCCCC1` (stereo unspecified), the T/C by setting is: under setting [9], 97 % of control; under setting [10], 95 % of control.

`CC(C)(C)OC(=O)NOC(=O)C(C)(C)C`: the T/C by setting is: under setting [7], 101 % of control; under setting [8], 100 % of control; under setting [1], 96 % of control; under setting [2], 89 % of control; under setting [3], 87 % of control.

Regarding `COc1ccccc1NC(=O)Oc1ccc(Cl)cc1C`, the T/C by setting is: under setting [11], 103 % of control; (endpoint: mean survival time, dose: 200.0 mg/kg/injection, schedule: Q04DX002 (ip), vehicle: saline with Tween-80) 100 % of control; under setting [12], 95 % of control.

As for `CC(C)=CCOC1=CC(=O)C(=O)c2ccccc21`, the T/C (endpoint: mean survival time, dose: 100.0 mg/kg/injection, schedule: Q01DX001 (ip), vehicle: saline with Tween-80) was 103 % of control.

`NC1=NC(=S)CS1`: the T/C under setting [4] is 95 % of control, the T/C under setting [5] was 95 % of control and the T/C under setting [6] is 87 % of control.

For the compound `CCOCC(C)(CO)CC(C)CO` (stereo unspecified), the T/C under setting [9] is 101 % of control; the T/C under setting [10] is 104 % of control; the T/C (endpoint: mean survival time, dose: 400.0 mg/kg/injection, schedule: Q01DX001 (ip), vehicle: saline) is 103 % of control.

In the case of `O=C1c2c(Cl)c(Cl)c(Cl)c(Cl)c2C(=O)N1O`, the T/C was 98 % of control under setting [1]; 98 % of control (endpoint: mean survival time, dose: 200.0 mg/kg/injection, schedule: Q01DX009 (ip), vehicle: saline with Tween-80); 98 % of control under setting [2]; 101 % of control under setting [3].

Consider `O=c1ssc2ccccc12`, for which the T/C runs as follows: under setting [1], 101 % of control; under setting [2], 101 % of control; under setting [3], 98 % of control.

For the compound `COc1cc(NC(=O)Nc2cccc(Cl)c2)c(OC)cc1Cl`, the T/C by setting is: under setting [11], 94 % of control; under setting [12], 91 % of control.
